How the values were obtained:
[1] = test system: eGFP-expressing recombinant CVB3; format: cell-based, coxsackievirus B3; details: for % of eGFP + cells, 0 Hr: compound added 0 hr post infection at its peak activity concentration, DMSO 26.0; for % of eGFP + cells, 0 Hr / % of eGFP + cells, 1 Hr / % of eGFP + cells, 2 Hr: read 6 hr post infection; for % of eGFP + cells, 1 Hr: compound added 1 hr post infection at its peak activity concentration, DMSO 23.7; for % of eGFP + cells, 2 Hr: compound added 2 hr post infection at its peak activity concentration, DMSO 24.8; for Inhibition of infected cells: eGFP-CVB3 m.o.i=1, compound added at time of infection, 6 hr post infection, 1-(% eGFP+ cells with compound/% with DMSO only)
CVB3-H3 = assay: Plaque reduction assay, CVB3-H3 in HeLa-RW cells; format: cell-based, coxsackievirus B3; details: compound added 30 min before infection, CVB3-H3 MOI 1, HeLa-RW, 6 hours; log10(titer with DMSO only/titer with inhibitor)
coxsackievirus B3 (CVB3) = assay: Cell viability assay, prevention of cell death caused by CVB3 infection; format: cell-based; details: for Selectivity index: 50% Cytotoxic concentration/50% activity concentration; for IC50 / EC (peak activity): Enterovirus B; for IC50: read-out: 50% activity concentration (IC50); for EC (peak activity): HeLa-RW cells and CVB3 at low multiplicity of infection, read-out: Peak Activity Conc.
Method: Procedure: Enteroviruses rapidly cause cell death, and a cell viability assay was used to examine the cytotoxicity of each compound and to identify the concentration needed to prevent cell death caused by coxsackievirus B3 (CVB3) infection.
Compounds were diluted two-fold and added to wells of 384 well plate. HeLa-RW cells were then added (cytotoxicity testing), or cells and CVB3 were added to provide a low multiplicity of infection to determine concentration of peak activity or 50% maximal concentration. Selectivity index is defined as the 50% Cytotoxic concentration/50% activity concentration

[2] = test system: viral capsid proteins of CVB3; assay: Immunoblot detection of CVB3 viral capsid protein; format: cell-based, coxsackievirus B3; details: six hours after infection with CVB3; compound added 30 minutes before inoculation; 10 μM fluoxetine in FIG. 2

Compound	% of eGFP + cells, 0 Hr [1] [%]	% of eGFP + cells, 1 Hr [1] [%]	% of eGFP + cells, 2 Hr [1] [%]	Inhibition of infected cells [1] [%]	Log10 reduction of virus titer (CVB3-H3)	Selectivity index (coxsackievirus B3 (CVB3))	IC50 (coxsackievirus B3 (CVB3)) [µM]	EC (peak activity) (coxsackievirus B3 (CVB3)) [µM]	viral capsid protein detected by immunoblot [2]
Cc1ccccc1NC(=O)c1cc(-c2cccs2)nc2c1cnn2C(C)C [Compound 1, 1-Isopropyl-N-(2-methylphenyl)-6-(2-thienyl)-1H-pyrazolo [3,4-b]pyridine-4-carboxamide]	0.0	0.0	0.0	100	4.4	42	0.6	1.56	–
CC(C)n1ncc2c(C(=O)Nc3ccc4c(c3)OCO4)cc(-c3ccccc3)nc21 [Compound 21, N-(1,3-Benzodioxol-5-yl)-1-isopropyl-6-phenyl-1H-pyrazolo [3,4-b]pyridine-4-carboxamide]	0.0	0.0	0.0	100	4.5	21	1.19	3.13	–
Cl.OC(c1cc(C(F)(F)F)nc2c(C(F)(F)F)cccc12)C1CCCCN1 (stereo not shown) [Compound 22, [2,8-Bis (trifluoromethyl)-4-quinolinyl](2-piperidinyl)methanol hydrochloride (1:1), reference compound]	21.1	18.5	27.9	100	4.0	6	1.6	3.13	–
CN1c2ccccc2C(=O)NC1c1cc2ccccc2nc1N1CCOCC1 (stereo not shown) [Compound 23, 1-Methyl-2-[2-(4-morpholinyl)-3-quinolinyl]-2,3-dihydro-4(1H)-quinazolinone]	0.1	3.8	0.0	100	4.4	54	0.92	3.13	–
Cc1ccc(-c2cc(C(=O)NN)c3ccccc3n2)s1 [Compound 25, 2-(5-Methyl-2-thienyl)-4-quinoline-carbohydrazide]	0.1	0.1	0.0	100	3.7	32	0.78	3.13	–
O=C(Nc1nc(CN2CCCC2)cs1)c1cc(-c2cccs2)nc2ccccc12 [Compound 33, N-[4-(1-Pyrrolidinylmethyl)-1,3-thiazol-2-yl)-2-(2-thienyl)-4-quinoline-carboxamide]	0.0	0.0	0.0	100	4.5	44	0.57	3.13	–
N#Cc1ccc(OCc2nc3ccccc3n2-c2ccccc2)cc1 [Compound 42, 4-[(1-Phenyl-1H-benzimidazol-2-yl)methoxy) benzonitrile]	0.0	0.1	0.0	100	4.5	8	3	6.25	–
COc1ccc(N(Cc2ccc(F)cc2)C(=O)c2ccco2)cc1 [Compound 57, N-(4-Fluorobenzyl)-N-(4-methoxyphenyl)-2-furamide]	0.0	0.0	0.0	99.7	4.3	16	3.13	6.25	–
O=C(c1ccco1)N(Cc1ccccc1)Cc1ccccn1 [Compound 58, N-Benzyl-N-(2-pyridinylmethyl)-2-furamide]	–	–	–	91.7	2.4	–	–	–	–
COc1ccc(-c2nc3cnccn3c2NCc2ccc(C)cc2)cc1CO [Compound 59, (2-Methoxy-5-{3-[(4-methylbenzyl)amino]imidazo[1,2-a]pyrazin-2-yl}phenyl)methanol]	–	–	–	75.2	1.3	–	–	–	–
CCC(C)(C)Nc1c(-c2ccc(OC)c(CN3CCOCC3)c2)nc2cnccn12 [Compound 60, 2-[4-Methoxy-3-(4-morpholinylmethyl)phenyl]-N-(2-methyl-2-butanyl) imidazo[1,2-a]pyrazin-3-amine]	–	–	–	100	1.8	–	–	–	–
COc1ccc(-c2nc(C)c(C(=O)Nc3cccc(-c4nnc5n4CCCCC5)c3)s2)cc1 [Compound 61, 2-(4-Methoxyphenyl)-4-methyl-N-[3-(6,7,8,9-tetrahydro-5H-[1,2,4]triazolo [4,3-a]azepin-3-yl)phenyl]-1,3-thiazole-5-carboxamide]	–	–	–	96.0	1.8	–	–	–	–
COc1ccc(/N=c2\oc3ccccc3cc2C(=O)NCC2CCCO2)cc1 (stereo not shown) [Compound 62, (2Z)-2-[(4-Methoxyphenyl)imino]-N-(tetrahydro-2-furanylmethyl)-2H-chromene-3-carboxamide]	–	–	–	90.4	1.5	–	–	–	–
NC(=O)C1CCN(CC(=O)N2N=C3/C(=C/c4cccs4)CCCC3C2c2cccs2)CC1 (stereo not shown) [Compound 63, 1-{2-Oxo-2-[(7E)-3-(2-thienyl)-7-(2-thienylmethylene)-3,3a,4,5,6,7-hexahydro-2H-indazol-2-yl]ethyl}-4-piperidine-carboxamide]	–	–	–	100	4.2	–	–	–	–
COc1ccc(NC(=O)c2nn(Cc3ccccc3)c(=O)c3ccccc23)cn1 [Compound 64, 3-Benzyl-N-(6-methoxy-3-pyridinyl)-4-oxo-3,4-dihydro-1-phthalazine-carboxamide]	–	–	–	100	4.2	–	–	–	–
CCCCNCC(=O)Nc1ccccc1N1CCCCC1 [Compound 65, N^2-Butyl-N-[2-(1-piperidinyl)phenyl] glycinamide]	–	–	–	36.2	−0.4	–	–	–	–
CCN(CC)CCNC1CCCc2c1[nH]c1ccc(C)cc21.Cl (stereo not shown) [Compound 66, N,N-Diethyl-2-[(6-methyl-2,3,4,9-tetrahydro-1H-carbazol-1-yl)amino] ethanaminium chloride]	–	–	–	99.6	4.4	–	–	–	–
NC1=Nc2nc3ccccc3n2C(c2ccc3ccccc3c2)N1 (stereo not shown) [Compound 67, 4-(2-Naphthyl)-1,4-dihydro[1,3,5] triazino[1,2-a]benzimidazol-2-amine]	–	–	–	67.7	1.9	–	–	–	–
C/C(=C\c1ccccc1)C1NC(N)=Nc2nc3ccccc3n21 (stereo not shown) [Compound 68, 4-[(1E)-1-Phenyl-1-propen-2-yl)-1,4-dihydro[1,3,5] triazino[1,2-a]benzimidazol-2-amine]	0.0	0.0	0.0	100	3.7	21	1.21	3.13	–
O=C(CCCc1nc(-c2ccccc2)no1)N1CCN(C2CCCCC2)C(=O)C1 [Compound 69, 1-Cyclohexyl-4-[4-(3-phenyl-1,2,4-oxadiazol-5-yl)butanoyl]-2-piperazinone]	–	–	–	96.5	2.0	–	–	–	–
Cl.Cl.OCCN1CCN(CC/C=C2/c3ccccc3Sc3ccc(C(F)(F)F)cc32)CC1 [Compound 70, 2-(4-{(3Z)-3-[2-(Trifluoromethyl)-9H-thioxanthen-9-ylidene]propyl}-1-piperazinyl)ethanol dihydrochloride, reference compound]	–	–	–	99.6	3.9	–	–	–	–
Cl.OCCN1CCN(CC/C=C2/c3ccccc3Sc3ccc(Cl)cc32)CC1 [Compound 71, 2-[4-[3-(2-chlorothioxanthen-9-ylidene)propyl]piperazin-1-yl]ethanol hydrochloride, reference compound]	–	–	–	99.1	4.2	–	–	–	–
Cl.O[C@@H]1[C@@H](O)C=C2CCN3Cc4cc5c(cc4[C@H]1C23)OCO5 (stereo partly drawn) [Compound 73, (1S,2S,12bS)-2,4,5,7,12b,12c-Hexahydro-1H-[1,3]dioxolo[4,5-j]pyrrolo[3,2,1-de] phenanthridine-1,2-diol hydrochloride (1:1), reference compound]	–	–	–	100	2.8	–	–	–	–
NCCC(Oc1ccc(C(F)(F)F)cc1)c1ccccc1 (stereo not shown) [Compound 74, 3-Phenyl-3-[4-(trifluoromethyl)phenoxy]-1-propanamine]	0.0	0.0	0.0	100	4.7	10	2.53	6.25	no viral protein is detected

Reference: patent publication US20150164910A1, “ANTIVIRAL COMPOUNDS AND METHODS OF USE” (The Regents of the University of Califonia, priority 2012, published 2015)
